Data taken from ChEMBL document CHEMBL1201862, “PubChem BioAssay data set” (2004).
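Compound exposure: 48 hours, 5 concentrations, 96-well plates. Here, GI50 denotes the concentration required for 50% inhibition of growth.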 Active and inactive are the calls of the source. Cut-off read from the data, not from the text of the source: active = GI50 up to about 1.1 µM and inactive = higher.

Columns and labels:
Assay in all cases: NCI tumour cell line growth inhibition, 48 h
786-0 = test system: 786-0
COLO 205 = test system: COLO 205
HL-60 = test system: HL-60
HOP-92 = test system: HOP-92
IGROV-1 = test system: IGROV-1
MCF7 = test system: MCF7
MDA-MB-435 = test system: MDA-MB-435
MDA-N = test system: MDA-N
MOLT-4 = test system: MOLT-4
OVCAR-8 = test system: OVCAR-8
SF-295 = test system: SF-295
SF-539 = test system: SF-539
SK-MEL-2 = test system: SK-MEL-2
SK-MEL-5 = test system: SK-MEL-5
SK-OV-3 = test system: SK-OV-3
SN12C = test system: SN12C
SNB-75 = test system: SNB-75
T47D = test system: T47D
UACC-62 = test system: UACC-62
UO-31 = test system: UO-31

Row | SMILES | GI50 (786-0) | GI50 (COLO 205) | GI50 (HL-60) | GI50 (HOP-92) | GI50 (IGROV-1) | GI50 (MCF7) | GI50 (MDA-MB-435) | GI50 (MDA-N) | GI50 (MOLT-4) | GI50 (OVCAR-8) | GI50 (SF-295) | GI50 (SF-539) | GI50 (SK-MEL-2) | GI50 (SK-MEL-5) | GI50 (SK-OV-3) | GI50 (SN12C) | GI50 (SNB-75) | GI50 (T47D) | GI50 (UACC-62) | GI50 (UO-31)
1 | CC(=O)Oc1c(C)cc2c(c1C)C(C)CN2C(C)=O (stereo not given) | > 100 µM (inactive) | > 100 µM (inactive) | > 100 µM (inactive) | > 100 µM (inactive) | > 100 µM (inactive) | > 100 µM (inactive) | > 100 µM (inactive) | > 100 µM (inactive) | > 100 µM (inactive) | > 100 µM (inactive) | > 100 µM (inactive) | > 100 µM (inactive) | > 100 µM (inactive) | > 100 µM (inactive) | > 100 µM (inactive) | > 100 µM (inactive) | 94.2 µM (inactive) | > 100 µM (inactive) | > 100 µM (inactive) | > 100 µM (inactive)
2 | C/N=C/N(C)c1c2ccccc2nc2ccccc12 | > 100 µM (inactive) | > 100 µM (inactive) | > 100 µM (inactive) | 64.7 µM (inactive) | > 100 µM (inactive) | > 100 µM (inactive) | > 100 µM (inactive) | > 100 µM (inactive) | > 100 µM (inactive) | > 100 µM (inactive) | > 100 µM (inactive) | > 100 µM (inactive) | > 100 µM (inactive) | > 100 µM (inactive) | > 100 µM (inactive) | > 100 µM (inactive) | 90.6 µM (inactive) | 85.7 µM (inactive) | > 100 µM (inactive) | 11.6 µM (inactive)
3 | CC1=C2CC(C)(C)/C=C\C(=O)/C(C)=C\C3=C[C@H](C)C[C@]3(O2)C1=O | 0.516 µM (active) | 0.902 µM (active) | 0.139 µM (active) | 1.09 µM (active) | 1.56 µM (inactive) | 0.343 µM (active) | 0.706 µM (active) | 0.914 µM (active) | 0.195 µM (active) | 0.9 µM (active) | 8.87 µM (inactive) | 0.946 µM (active) | 2.4 µM (inactive) | 1.48 µM (inactive) | 9.51 µM (inactive) | 1.42 µM (inactive) | 4.1 µM (inactive) | 0.544 µM (active) | 1.05 µM (active) | 1.18 µM (inactive)
4 | C=CCC1C(=O)Nc2cccc3ncn(c23)C1=O (stereo not given) | > 100 µM (inactive) | > 100 µM (inactive) | > 100 µM (inactive) | > 100 µM (inactive) | > 100 µM (inactive) | > 100 µM (inactive) | > 100 µM (inactive) | > 100 µM (inactive) | > 100 µM (inactive) | > 100 µM (inactive) | > 100 µM (inactive) | > 100 µM (inactive) | > 100 µM (inactive) | > 100 µM (inactive) | > 100 µM (inactive) | > 100 µM (inactive) | > 100 µM (inactive) | > 100 µM (inactive) | > 100 µM (inactive) | > 100 µM (inactive)
5 | CCOC(=O)c1cc(=O)c2ccnc3c2n1CCS3 | > 100 µM (inactive) | > 100 µM (inactive) | > 100 µM (inactive) | 66.4 µM (inactive) | 40.6 µM (inactive) | > 100 µM (inactive) | > 100 µM (inactive) | > 100 µM (inactive) | > 100 µM (inactive) | > 100 µM (inactive) | > 100 µM (inactive) | > 100 µM (inactive) | > 100 µM (inactive) | > 100 µM (inactive) | > 100 µM (inactive) | > 100 µM (inactive) | 8.3 µM (inactive) | 17.6 µM (inactive) | > 100 µM (inactive) | 57.5 µM (inactive)
6 | O=C(O)CCc1ccc(-c2ccccc2)[nH]1 | > 100 µM (inactive) | > 100 µM (inactive) | > 100 µM (inactive) | > 100 µM (inactive) | > 100 µM (inactive) | > 100 µM (inactive) | > 100 µM (inactive) | > 100 µM (inactive) | > 100 µM (inactive) | > 100 µM (inactive) | > 100 µM (inactive) | > 100 µM (inactive) | > 100 µM (inactive) | > 100 µM (inactive) | > 100 µM (inactive) | > 100 µM (inactive) | > 100 µM (inactive) | > 100 µM (inactive) | > 100 µM (inactive) | > 100 µM (inactive)
